Values quoted from earlier work in patent US20110288042A1, “STABLE HIGHLY PURE AZACITIDINE AND PREPARATION METHODS THEREFOR” (CHEMAGIS LTD., priority 2007, published 2011).

Conditions: reported; cited from earlier work

SMILES: O=c1ncccn1[C@@H]1O[C@H](CO)[C@@H](O)[C@H]1O [zebularine]
- Stability in aqueous solution: stable in aqueous solution
